The values that follow come from patent US9586931B2 (Merck Sharp & Dohme Corp., priority 2012, dated 2017).

The target in the experiment is T1, recombinant human GST-Syk (Homo sapiens, UniProt P43405).
T1 construct: purchased Carna Biosciences 08-176
The experiment can be described thus: Homogeneous Time-Resolved Fluorescence (HTRF) assay for the recombinant human Syk enzyme. The format is biochemical. The note with it: recombinant human GST-Syk 5 pM, ATP 25 μM, 10-dose titration 10 μM to 0.508 nM; read-out: rhSYK Activity IC50. The method in brief: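 Detection used time-resolved fluorescence 30 min after adding a quench mix (40 mM EDTA, 15 mM Tris pH 7.5, 0.01% Tween 20) containing 2 nM Europium anti-pTyr antibody and 70 nM streptavidin-APC. This followed 45 min of room-temperature peptide phosphorylation by recombinant GST-tagged human Syk.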
(In general: TR-FRET usually uses a lanthanide donor and a delayed reading to cut background.)
As to `Cc1cc(Nc2cc(C(F)(F)F)ccn2)nc(-c2cn(Cc3nnn[nH]3)nn2)c1` [Example 5.109, 4-methyl-6-[1-(1H-tetrazol-5-ylmethyl)-1H-1,2,3-triazol-4-yl]-N-[4-(trifluoromethyl)pyridin-2-yl]pyridin-2-amine], the IC50 was determined as 12.6 nM. In the case of `Cc1cc(Nc2cc(C(F)F)ccn2)nc(-c2cn(CC3CNC(=O)O3)nn2)c1` (single isomer, unassigned) [Example 7.13, 5-((4-(6-((4-(difluoromethyl)pyridin-2-yl)amino)-4-methylpyridin-2-yl)-1H-1,2,3-triazol-1-yl)methyl)oxazolidin-2-one], the IC50 was 2 nM. Regarding `Cc1cc(Nc2cc(C(F)(F)F)ccn2)nc(-c2cn(CC(=O)O)nn2)c1` [Example 5.88, [4-(4-methyl-6-{[4-(trifluoromethyl)pyridin-2-yl]amino}pyridin-2-yl)-1H-1,2,3-triazol-1-yl]acetic acid], the 50% inhibitory concentration (IC50) was 52.9 nM.

For `Cc1cc(Nc2cc(C3CC3)ccn2)nc(-c2cn(C(C)c3ccc(C(=O)O)cc3)nn2)c1` (stereo not drawn) [Example 2.11, 4-[1-(4-{6-[(4-cyclopropylpyridin-2-yl)amino]-4-methylpyridin-2-yl}-1H-1,2,3-triazol-1-yl)ethyl]benzoic acid], the IC50 stood at 6.4 nM. Consider `Cc1cc(Nc2cc(C(F)(F)F)ccn2)nc(-c2cn([C@H](C)C(=O)N3CCC[C@H]3C(N)=O)nn2)c1` [Example 1.19, 1-{(2R)-2-[4-(4-methyl-6-{[4-(trifluoromethyl)pyridin-2-yl]amino}pyridin-2-yl)-1H-1,2,3-triazol-1-yl]propanoyl}prolinamide], for which the IC50 worked out at 123 nM. With `Cc1cc(Nc2nccc(C)n2)cc(-c2cn(C[C@](C)(O)CO)nn2)c1` (single isomer, unassigned) [Example 21.1, 2-Methyl-3-(4-(3-methyl-5-((4-methylpyrimidin-2-yl)amino)phenyl)-1H-1,2,3-triazol-1-yl)propane-1,2-diol], the IC50 came out at 6.2 nM. With `CCC(O)C(O)Cn1cc(-c2cc(C)cc(Nc3cc(C(F)(F)F)ccn3)n2)nn1` (stereo not drawn) [Example 10.7, 1,4,5-trideoxy-1-[4-(4-methyl-6-{[4-(trifluoromethyl)pyridin-2-yl]amino}pyridin-2-yl)-1H-1,2,3-triazol-1-yl]pentitol], the IC50 was found to be 30.4 nM. As for `Cc1cc(Nc2nccc(C(F)(F)F)n2)cc(-c2cn(C3CCCCC3O)nn2)c1` (racemic) [Example 5.57, 2-[4-(3-methyl-5-{[4-(trifluoromethyl)pyrimidin-2-yl]amino}phenyl)-1H-1,2,3-triazol-1-yl]cyclohexanol], the IC50 came to 17 nM.

Regarding `Cc1cc(Nc2nccc(C(F)F)n2)cc(-c2cn(C3CCCC(O)C3O)nn2)c1` (single isomer, unassigned) [Example 25.2, 3-(4-(3-((4-(difluoromethyl)pyrimidin-2-yl)amino)-5-methylphenyl)-1H-1,2,3-triazol-1-yl)cyclohexane-1,2-diol], the IC50 was found to be 7.3 nM. For `Cc1cc(Nc2nccc(C3CC3)n2)cc(-c2cn(CC(C)(O)C(C)(C)O)nn2)c1` (stereo not drawn) [Example 21.14, 1-(4-{3-[(4-cyclopropylpyrimidin-2-yl)amino]-5-methylphenyl}-1H-1,2,3-triazol-1-yl)-2,3-dimethylbutane-2,3-diol], the IC50 is 7.4 nM.

In the case of `Cc1cc(Nc2nccc(C(F)F)n2)cc(-c2cn(CC(C)(O)CC#N)nn2)c1` (single isomer, unassigned) [Example 27.2, 4-(4-(3-((4-(Difluoromethyl)pyrimidin-2-yl)amino)-5-methylphenyl)-1H-1,2,3-triazol-1-yl)-3-hydroxy-3-methylbutanenitrile], the IC50 came to 21.1 nM. The result for `Cc1cc(Nc2nccc(C(F)(F)F)n2)cc(-c2cn(CCCN)nn2)c1` [Example 5.48, N-{3-[1-(3-aminopropyl)-1H-1,2,3-triazol-4-yl]-5-methylphenyl}-4-(trifluoromethyl)pyrimidin-2-amine] reads 32.9 nM.

Usually IC50 stands for the point on the concentration scale where inhibition reaches its midpoint.
